Source: US12090128B2, “Dispersible formulations of n-((r)-2,3-dihydroxypropoxy)-3,4-difluoro-2-(2-fluoro-4-iodo-phenylamino)-benazmide and uses thereof” (SpringWorks Therapeutics, Inc., priority 2021, dated 2024)

Experiment: Storage stability of crystalline Form IV by XRPD and/or DSC
Format: physicochemical
Description: FIG. 3A is an XRPD corresponding to essentially pure Form IV of N—((R)-2,3-dihydroxypropoxy)-3,4-difluoro-2-(2-fluoro-4-iodo-phenylamino)-benzamide after storage for 68 months after production at 25° C. and ≤65% relative humidity.
FIG. 3B is an XRPD corresponding to essentially pure Form IV of N—((R)-2,3-dihydroxypropoxy)-3,4-difluoro-2-(2-fluoro-4-iodo-phenylamino)-benzamide after storage for 140 months after production at 25° C. and ≤65% relative humidity.
In some aspects, the XRPD pattern is generated using a PANALYTICAL® X'Pert Pro diffractometer using Ni-filtered Cu Kα (45 kV/40 mA) radiation and a step size of 0.03° 2θ with a X′CELERATOR® Real Time Multi-Strip detector, configured (a) on the incidental beam side as follows: variable divergence slits (10 mm irradiated length), 0.04 rad Soller slits, fixed anti-scatter slit (0.50°), and 10 mm beam mask, and (b) on the diffracted beam side as follows: variable anti-scatter slit (10 mm observed length) and 0.04 rad Soller slit or a BRUKER® D8® ADVANCE™ system using Cu Kα (40 kV/40 mA) radiation and a step size of 0.03° 2θ with a LYNXEYE™ detector, configured (a) on the incidental beam side as follows: Goebel mirror, mirror exit slit (0.2 mm), 2.5° Soller slit, beam knife, and (b) on the diffracted beam side as follows: anti-scatter slit (8 mm) and 2.5° Soller slit; wherein samples are mounted flat on zero-background Si wafers. […]

With `O=C(NOC[C@H](O)CO)c1ccc(F)c(F)c1Nc1ccc(I)cc1F` [essentially pure Form IV, N—((R)-2,3-dihydroxypropoxy)-3,4-difluoro-2-(2-fluoro-4-iodo-phenylamino)-benzamide] the “XRPD pattern and/or DSC profile after storage” value (storage for 68 months at standard warehouse conditions (15° C.-25° C. and ≤65% relative humidity), FIG. 3A) was “substantially unchanged” and the “XRPD pattern and/or DSC profile after storage” value (storage for ≥140 months at standard warehouse conditions (15° C.-25° C. and ≤65% relative humidity), FIG. 3B) was “substantially unchanged”.
